Measurements: patent US20100210635A1, “RENIN INHIBITORS” (Takeda Pharmaceutical Company Limited, priority 2006, published 2010)

Target: T1, Recombinant human renin (Homo sapiens, UniProt P00797)
T1 construct: isolate the active form (residues 67-406); made in house; host or cells: FreeStyle 293-F cells (transient expression of pcDNA3.1(+)/hREN)
T1 sequence (P00797 67-406): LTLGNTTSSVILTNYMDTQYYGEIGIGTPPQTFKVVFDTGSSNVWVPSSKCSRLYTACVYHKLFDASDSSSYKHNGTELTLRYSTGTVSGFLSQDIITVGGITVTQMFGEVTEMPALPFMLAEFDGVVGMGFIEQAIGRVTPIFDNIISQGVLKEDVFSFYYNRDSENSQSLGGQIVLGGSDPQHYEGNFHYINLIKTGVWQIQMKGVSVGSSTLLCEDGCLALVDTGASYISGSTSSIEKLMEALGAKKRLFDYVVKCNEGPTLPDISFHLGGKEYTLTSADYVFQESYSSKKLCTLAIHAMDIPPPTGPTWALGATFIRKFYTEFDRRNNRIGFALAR
Assay: In vitro enzymatic activity assay of Renin inhibitors (fluorescence, QXL520/HiLyteFluo488 peptide substrate)
Format: biochemical
Settings: recombinant human renin 3 nM, 1 μM substrate, 37° C., pH 7.4; values given as ranges; read-out: IC50 of Exemplified Compounds Against Renin
Method in brief: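 Recombinant human renin (active form, residues 67-406; 3 nM final) pre-incubated 10 min at 37 °C with compounds in Hepes buffer pH 7.4 with 0.1 mg/ml BSA (optionally plus 2% BSA), 5% DMSO. Reaction started with 1 μM FRET peptide substrate; fluorescence (ex 485/em 538 nm) change over 1 h at 37 °C versus vehicle gives % inhibition, and pIC50/IC50 come from curve fitting.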

IC50: < 500 nM
SMILES: CC(=O)NCCc1ccccc1Cc1ccccc1CCC(=O)N1CCNC[C@H]1Cc1ccc(-c2nnn[nH]2)cc1 [Example 94, (R)—N-(2-(2-(3-(2-(4-(1H-tetrazol-5-yl)benzyl)piperazin-1-yl)-3-oxopropyl)benzyl)phenethyl)acetamide]
